These results are taken from patent publication US5523223A, “Ketoester reductase for conversion of keto acid esters to optically active hydroxy acid esters” (priority 1992, dated 1996).

Assay [1] deals with KERed from C. parapsilosis. As to the kind of experiment: Inhibition study of the KERed (influence of metal cations and reagents). The format is biochemical, Candida parapsilosis. The text has this:
For the following investigation, partially purified enzyme (after Q-sepharose chromatography, 67-times enrichment) was used. […]
5-oxohexanoic acid ethyl ester
TEA-NaOH-buffer, 0.1 M; pH 7.9
The influence of various metal cations and reagents upon the enzymatic activity was investigated in tests in which the test preparation described under example 3.B was used.

Assay [2] relates to KERed from R. erythropolis. In words: Screening of crude extract for ketoester reductase activity (photometric NAD(P)H decrease). It counts as biochemical, Rhodococcus erythropolis. The note with it: 0.2 mM NADH, 8 mM ketoester, TEA-NaOH buffer pH 7, mU/mg protein. How it is done: (§1) For screening collection strains of the DSM (German Collection of Microorganisms and Cell Cultures, Braunschweig) is cultured in the DSM recommended medium, the cell mass is harvested by centrifugation and disintegrated by wet milling. A permanent deposit of Candida parapsilosis DSM 70125 has been deposited on 29 Mar. 1979 in accordance with the requirements of the Budapest Treaty. The address of the depository is as follows: German Collection of Microorganisms and Cell Cultures, DSM-Mascheroder Weg 1B, Braunschweig, Germany. The supernatant served as the enzyme source (crude extract) and was investigated for ketoester reductase activity. The test was carried out photometrically and the test mixture contained the following components.
(§2) 0.1M triethanoleamine (TEA)-NaOH-Buffer, pH 7
(§3) Limited amounts of the crude extract.
(§4) The NAD(P)H-decrease at 334nm over a period of 1 minute was followed: For activity calculation, an absorption coefficient of […] was used. […] One U (unit) corresponds to the consumption and conversion of 1 μmole of reduced coenzyme per minute.

In assay [3] the test system is KERed from Candida parapsilosis. In words: Kinetic characterization of the KERed. The format is biochemical. The following applies: partially purified enzyme; for Vmax: referred to 2-butanone.
The test system of a further assay is KERed from Y. cellobiosa. In words: Screening of crude extract for ketoester reductase activity (photometric NAD(P)H decrease). The format is biochemical, Yarrowinia cellobiosa. The note with it: 8 mM ketoester, TEA-NaOH buffer pH 7, mU/mg protein; for NADH dependent specific activity: 0.2 mM NADH; for NADPH-dependent specific activity: 0.2 mM NADPH. How it is done:
as §1, §2, §3, §4

The test system of assay [4] is KERed from P. acidovorans. The assay is described as above. The following applies: 8 mM ketoester, TEA-NaOH buffer pH 7, mU/mg protein; for NADH dependent specific activity: 0.2 mM NADH. It counts as biochemical, Pseudomonas acidovorans. How it is done:
as §1, §2, §3, §4

The test system of assay [5] is KERed from C. parapsilosis. Described as above. The format is biochemical, Candida parapsilosis. The following applies: 8 mM ketoester, TEA-NaOH buffer pH 7, mU/mg protein; for NADH dependent specific activity: 0.2 mM NADH; for NADPH-dependent specific activity: 0.2 mM NADPH. How it is done:
as §1, §2, §3, §4

[6] abbreviates: compound 0.1 mM, 35 mM 5-oxohexanoic acid ethyl ester, 0.2 mM NADH, pH 7.9.
Setting [7] is: compound 1.0 mM, 35 mM 5-oxohexanoic acid ethyl ester, 0.2 mM NADH, pH 7.9.
[8] abbreviates: summary statements of the inhibition study.

Several values for one entry are separate records, joined by “and”; a condition that tells them apart may be missing. Equal entries are not always repeated. Entries after “also recorded” stand apart in the source; their conditions may differ. Where two headings read alike, the source gives them in different places.

With `O[C@@H](CS)[C@@H](O)CS` (racemic) [1,4-Dithiothreitol], the “Residual Activity” value in assay [1] (setting [6]) and in assay [1] (setting [7]) was 100% each time. In addition, the “Influence on KERed activity (in words)” value in assay [1] (setting [8]) is “Stabilization”.

For the molecule `c1ccc(-c2ccccn2)nc1` [2,2'-bipyridyl], the figures for the “Residual Activity” value in assay [1] (2,2'-bipyridyl 0.05 mM) and in assay [1] (2,2'-bipyridyl 0.5 mM) were 52% and 23%, respectively. Moreover, in assay [1] (setting [8]), the “Influence on KERed activity (in words)” value is “Strong inhibition”.

For `CCOC(=O)CC(C)=O` [AEEE, acetoacetic acid ethyl ester], the figures for the “NADH dependent specific activity” value (in assay [2]; in the assay with KERed from Y. cellobiosa; in assay [4]) were 153.0 mU/mg, 103.1 mU/mg and 49.0 mU/mg, respectively. In addition, the Km in assay [3] stood at 122 µM. Also, the Vmax in assay [3] amounted to 79%. The molecule also returned an NADPH-dependent specific activity with KERed from Y. cellobiosa of 5.0 mU/mg.

For the molecule `[Ag+]` [Ag^+], the “Residual Activity” value in assay [1] (setting [6]) and in assay [1] (setting [7]) was 0% each time. Moreover, in assay [1] (setting [8]), the “Influence on KERed activity (in words)” value is “Rapid deactivation”.

With `CCCC(=O)CC(=O)OCC` [BEEE, butyrylacetic acid ethy ester], the “NADH dependent specific activity” value is listed as 3.0 mU/mg in assay [2], 49.0 mU/mg in assay [5], 20.3 mU/mg in the assay with KERed from Y. cellobiosa and 11.6 mU/mg in assay [4]. For the same molecule, the NADPH-dependent specific activity is 25.0 mU/mg in assay [5] and 15.6 mU/mg in assay [4] (0.2 mM NADPH). Further, the Km in assay [3] was 1300 µM. Also, the Vmax in assay [3] is recorded as 5%.

On to `[Ca+2]` [Ca^2+], for which the “Residual Activity” value in assay [1] (setting [6]) was determined as 78%; in assay [1] (setting [7]), 68%.

In the case of `[Co+2]` [Co^2+], the “Residual Activity” value came out at 38% in assay [1] (setting [6]) and 12% in assay [1] (setting [7]). The “Influence on KERed activity (in words)” value in assay [1] (setting [8]) was “Rapid deactivation”.

As to `[Cu+2]` [Cu^2+], the “Residual Activity” value in assay [1] (setting [6]) and in assay [1] (setting [7]) was 0% throughout. In assay [1] (setting [8]), the “Influence on KERed activity (in words)” value is “Rapid deactivation”.

On to `CCOC(=O)OC(=O)OCC` [Diethyl Pyrocarbonate], for which the “Residual Activity” value in assay [1] (setting [6]) and in assay [1] (setting [7]) was 100% in each case.

Turning to `O=C(O)CN(CCN(CC(=O)O)CC(=O)O)CC(=O)O` [EDTA], in assay [1], the “Influence on KERed activity (in words)” value was “practically not inhibited”; the “Residual Activity” value is 100% and 80%.

For `CCO` [Ethanol], the “Residual Activity” value in assay [1] (Ethanol 5%) is reported as 30%. In assay [3], the Km was 3400 µM and the Vmax is 42%.

As to `[Fe+3]` [Fe^3+], the “Residual Activity” value in assay [1] (setting [6]) turned out to be 100%.

Consider `N[C@@H](CCC(=O)N[C@@H](CS)C(=O)NCC(=O)O)C(=O)O` [Glutathione (reduced), Glutathione], for which the “Residual Activity” value in assay [1] (setting [6]) and in assay [1] (setting [7]) was 100% in each case.

Consider `[Hg+2]` [Hg^2+], for which the “Residual Activity” value in assay [1] (setting [6]) and in assay [1] (setting [7]) was 0% each time. Besides, in assay [1] (setting [8]), the “Influence on KERed activity (in words)” value was “Rapid deactivation”.

For the molecule `NC(=O)CI` [Iodoacetamide], the “Residual Activity” value is listed as 77% in assay [1] (setting [6]) and 17.5% in assay [1] (setting [7]). The “Influence on KERed activity (in words)” value in assay [1] (setting [8]) is “Strong inhibition”.

Turning to `CCOC(=O)CCC(C)=O` [LSEE, levulinic acid ethyl ester], the “NADH dependent specific activity” value was 87.1 mU/mg in assay [2], 85.1 mU/mg in assay [5], 41.1 mU/mg in the assay on KERed from Y. cellobiosa and 4.1 mU/mg in assay [4]. Further, the figures for the NADPH-dependent specific activity (in assay [5]; in the assay on KERed from Y. cellobiosa) were 1.3 mU/mg and 4.0 mU/mg, respectively. In addition, in assay [3], the Km worked out at 1730 µM. Moreover, the Vmax in assay [3] was found to be 12%.

On to `CC(=O)C=O` [Methylglyoxal], for which the figures for the “Residual Activity” value in assay [1] (setting [6]) and in assay [1] (setting [7]) were 100% and 34%, respectively.

For the molecule `[Mg+2]` [Mg^2+], the “Residual Activity” value in assay [1] (setting [6]) came out at 91%; in assay [1] (setting [7]), 82%.

Consider `[Mn+2]` [Mn^2+], for which the entries for the “Residual Activity” value in assay [1] (setting [6]) and in assay [1] (setting [7]) were 84% and 80%, respectively.

In the case of `CCN1C(=O)C=CC1=O` [N-ethylmaleimide], the entries for the “Residual Activity” value in assay [1] (setting [6]) and in assay [1] (setting [7]) were 70% and 47%, respectively.

Turning to `[Ni+2]` [Ni^2+], the “Residual Activity” value amounted to 10% in assay [1] (setting [6]) and 0% in assay [1] (setting [7]). Also, in assay [1] (setting [8]), the “Influence on KERed activity (in words)” value is given as “Rapid deactivation”.

As to `[Pb+2]` [Pb^2+], the “Residual Activity” value in assay [1] (setting [6]) and in assay [1] (setting [7]) was 0% in each case. Further, the “Influence on KERed activity (in words)” value in assay [1] (setting [8]) was “Rapid deactivation”.

On to `Cl.NCCc1ccc(S(=O)(=O)F)cc1` [Pefabloc], for which, in assay [1] (setting [7]), the “Residual Activity” value stood at 100%.

As to `[Sn+2]` [Sn^2+], the figures for the “Residual Activity” value in assay [1] (setting [6]) and in assay [1] (setting [7]) were 73% and 0%, respectively. Further, the “Influence on KERed activity (in words)” value in assay [1] (setting [8]) was “Rapid deactivation”.

With `[Zn+2]` [Zn^2+], the “Residual Activity” value came out at 24% in assay [1] (setting [6]) and 0% in assay [1] (setting [7]).

`c1cnc2c(c1)ccc1cccnc12` [o-Phenanthroline]: in assay [1] (setting [6]), the “Residual Activity” value is recorded as 26%. Moreover, in assay [1] (setting [8]), the “Influence on KERed activity (in words)” value is given as “relatively strongly inhibited; also recorded: Strong inhibition”.

In the case of `O=C(O)c1cc[c]([Hg+])cc1.[OH-]` [p-Hydroxymercuribenzoate], the “Residual Activity” value in assay [1] (setting [6]) and in assay [1] (setting [7]) was 0% each time. Further, in assay [1] (setting [8]), the “Influence on KERed activity (in words)” value is listed as “Strong inhibition”.

Triton X-100: in assay [1] (Triton X-100 0.1%), the “Residual Activity” value was determined as 100%.
